Experimental data: paper PMC10070462, “Drug cytotoxicity screening using human intestinal organoids propagated with extensive cost-reduction strategies” (Scientific Reports, 2023)
“Also recorded” adds a separate entry of the source. Like-named read-outs stand apart in the source and are kept apart here.

Legend:
[1] = tested on: hiPSO-derived IECs; test: Cell viability of dispersed hiPSO-derived IECs (CellTiter-Glo 3D); conditions: for effect of kinase inhibitor on dose-dependent cytotoxicity induced by YC-1: 10 µM inhibitor with 0-30 µM YC-1, 48 h, Fig. 6A-C; for IEC-selective dose-dependent cytotoxicity: dose-dependent analysis, dispersed IECs from hiPSOs and hPIOs versus Caco-2 cells, Fig. 4D; for toxicity against IECs (cell viability): indicated doses, dispersed hiPSO-derived IECs, Fig. 5A, B
[2] = tested on: hPIO-derived IECs; test: Cell viability of dispersed hPIO-derived IECs (CellTiter-Glo 3D); conditions: 1 µM, 48 h, dispersed IECs of hPIOs, Fig. 4A
[3] = tested on: hiPSO-derived IECs
[4] = tested on: Caco-2 cells; test: Cell viability of Caco-2 cells (CellTiter-Glo 3D), counter-assay; format: cell-based, human; conditions: dose-dependent analysis, Fig. 4D
[5] = tested on: caspase-8, RIP1, caspase-3, PARP, XIAP in hiPSO-derived IECs; test: Western blot analysis of apoptotic proteins in hiPSO-derived IECs; format: cell-based, human; conditions: 0, 1, 10 µM, 14 h, Fig. 5D
Description: After the preparation of lysis buffer [50 mM Tris-HCl (pH 8.0), 150 mM NaCl, 1% Triton X-100, 0.5% deoxycholate, 0.1% sodium dodecyl sulfate (SDS), and a protease inhibitor cocktail (Nacalai Tesque)], cell lysates were subjected to SDS-polyacrylamide gel electrophoresis and transferred onto a polyvinylidene difluoride membrane. The membrane was blocked with Blocking One (Nacalai Tesque) for 1 h at room temperature (RT), incubated overnight at 4 °C with primary antibodies against caspase-3 (1:1000), caspase-8 (1:1000), PARP (1:1000), RIP1 (1:1000), XIAP (1:100), and β-actin (1:200), and incubated with secondary antibodies for 1 h at RT. Chemiluminescent signals were determined using Fusion Solo S (Vilber). A pre-stained ladder protein marker (XL-Ladder Broad, APRO Science) that was not visible as a chemiluminescent signal was used to determine the position of molecular weights. Full-scan images were represented in the Supplementary Information.

[6] = tested on: CCND1 and VIL1 mRNA in hiPSO-derived IECs; test: qRT-PCR of mRNA levels in hiPSO-derived IECs; format: cell-based, human; conditions: 0, 1, 10 µM, 48 h, Fig. 5E
Description: Total cellular RNA was extracted using RNeasy Mini Kit (Qiagen). Reverse transcription was performed using a high-capacity cDNA Reverse Transcription Kit (Thermo Fisher Scientific). The mRNA levels were measured by fluorescence real-time PCR on StepOnePlus (Thermo Fisher Scientific) using PrimeTime qPCR Probes (Integrated DNA Technologies). The 18S rRNA levels were used as an internal control to normalize the mRNA levels of each gene.

## C[S+]([O-])c1ccc(-c2nc(-c3ccncc3)c(-c3ccc(F)cc3)[nH]2)cc1 (stereo not drawn) [SB203580]
[1]
  effect of kinase inhibitor on dose-dependent cytotoxicity induced by YC-1: almost no effect

## CC1=C(/C=C/C(C)=C/C=C/C(C)=C/C(=O)Nc2ccc(O)cc2)C(C)(C)CCC1 [4-HPR, N-(4-hydroxyphenyl)retinamide]
[1]
  IEC-selective dose-dependent cytotoxicity: identified

## CCc1c2c(nc3ccc(O)cc13)-c1cc3c(c(=O)n1C2)COC(=O)[C@]3(O)CC [SN-38]
[2]
  cytotoxic effect (cell viability): confirmed
[3]
  cytotoxic effect (cell viability): confirmed

## COC(=O)Nc1c(N)nc(-c2nn(Cc3ccccc3F)c3ncc(F)cc23)nc1N [vericiguat]
[1]; 48 h
  toxicity against IECs (cell viability): little toxicity

## CCCCCCCC/C=C\CCCCCCCC(=O)NCCc1ccc(O)c(O)c1 [N-oleoyldopamine]
[3]
  IEC-selective dose-dependent cytotoxicity: identified

## CS(=O)(=O)c1ccc(Oc2cc(F)cc(C#N)c2)c2c1[C@H](O)C(F)(F)C2 [PT-2385]
[1]; 48 h
  toxicity against IECs (cell viability): little toxicity

## Oc1c2ccccc2c2c3c(cccc13)N=N2 [SP600125]
[1]
  effect of kinase inhibitor on dose-dependent cytotoxicity induced by YC-1: almost no effect

## CN(C)CC[C@H](CSc1ccccc1)Nc1ccc(S(=O)(=O)NC(=O)c2ccc(N3CCN(Cc4ccccc4-c4ccc(Cl)cc4)CC3)cc2)cc1[N+](=O)[O-] [ABT-737]
[1]
  IEC-selective dose-dependent cytotoxicity: identified

## COc1cccc(-c2cc(=O)c3ccccc3o2)c1N [PD98059]
[1]; 0-30 µM PD98059 with 1 µM YC-1, 48 h, Fig. 6D
  inhibition of cytotoxicity of 1 µM YC-1: in a dose-dependent manner
[1]; 10 µM PD98059 with 0-30 µM 4-HPR, 48 h, Fig. 6F
  inhibition of cytotoxicity caused by 4-HPR: failed to inhibit
[1]; 10 µM PD98059 with 0-30 µM ABT-737, 48 h, Fig. 6E
  inhibition of cytotoxicity caused by ABT-737: failed to inhibit
[1]; 10 µM PD98059 with 0-30 µM N-oleoyldopamine, 48 h, Fig. 6H
  inhibition of cytotoxicity caused by N-oleoyldopamine: failed to inhibit
[1]; 10 µM PD98059 with 0-30 µM ivermectin, 48 h, Fig. 6G
  inhibition of cytotoxicity caused by ivermectin: failed to inhibit
[1]; 10 µM PD98059 with 1 µM YC-1, 48 h, Figure S5
  inhibition of YC-1-induced cytotoxicity in IECs from hiPSOs expanded with Matrigel: inhibited
[1]
  effect of kinase inhibitor on dose-dependent cytotoxicity induced by YC-1: substantially prevented

## OCc1ccc(-c2nn(Cc3ccccc3)c3ccccc23)o1 [YC-1, 3-(5′-hydroxymethyl-2′-furyl)-1-benzyl indazole]
[4]
  cytotoxicity against Caco-2 cells: least cytotoxicity; also recorded: very little
[5]
  anti-apoptotic protein XIAP level: decreased
  cleavage of caspase-8, RIP1, caspase-3 and PARP: dose-dependently induced the cleavage
[6]
  CCND1 mRNA levels: downregulated
  VIL1 mRNA levels: downregulated
[3]
  IEC-selective dose-dependent cytotoxicity: identified
  cytotoxicity against IECs: significant cytotoxicity

## COC(=O)c1ccc(O)c(NC(=O)COc2ccc(C34CC5CC(CC(C5)C3)C4)cc2)c1 [LW6]
[1]; 48 h
  toxicity against IECs (cell viability): little toxicity
